Measurements from patent US20240246984A1, “HETEROCYCLIC JAK INHIBITOR” (BEIJING INNOCARE PHARMA TECH CO., LTD., priority 2020, published 2024).

Key:
[1] = molecular target: human recombinant JAK2 protein (Homo sapiens, UniProt O60674); test: JAK2 activity inhibition assay (HTRF kinase detection); assay type: biochemical; details: 2.5 μM ATP substrate solution
Description: The effect of the compounds of the present invention on the activity of JAK2 was assessed by using an in vitro kinase detection assay.
The enzymatic activity of JAK2 was assessed by detecting the substrate phosphorylation level in a kinase reaction with a homogeneous time-resolved fluorescence (HTRF) kinase detection kit (Cisbio, 62TK0PEC). A reaction buffer contained an enzyme buffer (1×), 5 mM MgCl2, 1 mM DTT and 0.01% Brij35 from the kit; a human recombinant JAK2 protein (Carna Biosciences, 08-045) was diluted to a kinase reaction solution of 0.15 ng/μL with the reaction buffer; a substrate reaction solution contained 2.5 μM ATP and a biotin-labeled tyrosine kinase substrate diluted to 0.25 μM with the reaction buffer; a detection buffer contained 0.1 ng/μL Eu^3+ labeled cage antibody (Cisbio, 61T66KLB) and 12.5 nM streptavidin-labeled XL665 (Cisbio, 610SAXLB) in the reaction buffer; the compound was dissolved to 10 μM in DMSO, followed by a serial 4-fold dilution with DMSO to a minimum concentration of 0.061 nM. Each concentration was further diluted 40-fold with the reaction buffer. To a 384-well assay plate (Corning, 3674) were added 4 μL of the compound solutions having a series of concentrations and 2 μL of JAK2 kinase reaction solutions. After being mixed evenly, the mixtures were incubated at room temperature for 15 minutes, and then 4 μL of the substrate reaction solutions were added. The reaction mixtures were incubated at room temperature for 30 minutes. Then the reaction mixtures were added with 10 μL of detection solutions, mixed evenly, and allowed to stand at room temperature for 30 minutes. An Envision plate reader (Perkin Elmer) was then used to measure the progress of the reaction at wavelengths of 620 nm and 665 nm. The signal value (absorbance at 665 nm/absorbance at 620 nm) was positively correlated with the degree of substrate phosphorylation, therefore the kinase activity of JAK2 was detected. In this assay, the group without JAK2 kinase protein was the 100% inhibition group, and the group with JAK2 kinase protein but without the test compound was the 0% inhibition group. The compound inhibition curve was plotted using XLfit software and the IC50 of its inhibition was calculated.

[2] = system: IL-12-induced IFN-γ secretion in NK92 cells; test: Inhibition of IL-12-induced IFN-γ secretion in NK92 cells (ELISA); assay type: cell-based; details: Homo sapiens, IL-12 stimulation, 24 hours, read-out: IC50 (NK92IL12/IFN-γ)
Description: The effect of the compounds of the present invention on IFN-γ secretion in IL-12-induced NK92 cells was evaluated by an enzyme-linked immunosorbent assay (ELISA).
The assay principle was generally described below: IL-12R was mainly expressed in activated T-cells, NK cells (NK92 was an NK cell line), DC cells, and B-cells. When binding to IL-12, it activated the JAK2/TYK2 signal transduction pathway within NK cells and activated T lymphocytes, thereby inducing secretion of IFN-γ.
The compound was dissolved to 2.5 mM in DMSO, followed by a serial 4-fold dilution with DMSO to a minimum concentration of 0.31 μM. Each concentration was further diluted 50-fold with an FBS-free MEMα medium (Thermofisher. 12561-056).
NK92 cells (Nanjing Cobioer, CBP60980) were cultured in a complete MEMα medium containing 12.5% FBS (Ausbian, VS500T), 12.5% horse serum (Thermofisher, 16050-122), 0.02 mM folic acid (Sigma, F8758), 0.2 mM inositol (Sigma, 17850), 0.55 mM β-mercaptoethanol (Thermofish, 21985-023), 200 U/mL IL-2 (R&D Systems, 202-1L), and 100 U/mL penicillin-streptomycin mixed liquor (ThermoFisher, 15140122). When covering 80-90% of the culture container surface, the cells were dispersed and plated on a 96-well plate (ThermoFisher, 167425) with 100,000 cells per well (80 μL of the complete MEMα medium without IL-2). The 96-well plate was then incubated overnight in a 37° C., 5% CO2 incubator.
After overnight incubation, 10 μL of the compound and 10 μL of 50 ng/ml IL-12 (R &D Systems, 219-1L) were added to each well and mixed gently, and the 96-well plate was incubated in the 37° C., 5% CO2 incubator for additional 24 hours. The plate was centrifuged at 800 rpm for 10 minutes at room temperature and 50 μL of the supernatant from each well was transferred to another 96-well plate (Sigma, CLS3695) coated with anti-IFN-γ antibody. The amount of IFN-γ secretion was detected following the instruction from the Human IFN-γ DuoSet ELISA assay kit (R & D Systems, DY285B). In this assay, the group in which IL-12 and the test compound were replaced with the MEMα medium was the non-stimulated control group (100% inhibition), and the group with IL-12 and 0.2% DMSO was the stimulated control group (0% inhibition). The compound inhibition curve was plotted using XLfit software and the IC50 of its inhibition was calculated.

[3] = molecular target: human recombinant TYK2 protein (Homo sapiens, UniProt P29597); test: TYK2 activity inhibition assay (HTRF kinase detection); assay type: biochemical; details: 11.25 μM ATP substrate solution
Description: The effect of the compounds of the present invention on the activity of TYK2 was assessed by using an in vitro kinase detection assay.
The enzymatic activity of TYK2 was assessed by detecting the substrate phosphorylation level in a kinase reaction with a homogeneous time-resolved fluorescence (HTRF) kinase detection kit (Cisbio, 62TK0PEC). A reaction buffer contained an enzyme buffer (1×), 5 mM MgCl2, 1 mM DTT and 0.01% Brij35 from the kit; a human recombinant TYK2 protein (Carna Biosciences, 08-147) was diluted to a kinase reaction solution of 0.25 ng/μL with the reaction buffer; a substrate reaction solution contained 11.25 μM ATP and a biotin-labeled tyrosine kinase substrate diluted to 0.5 μM with the reaction buffer; a detection buffer contained 0.1 ng/μL Eu^3+ labeled cage antibody (Cisbio, 61T66KLB) and 25 nM streptavidin-labeled XL665 (Cisbio, 610SAXLB) in the reaction buffer; the compound was dissolved to 10 μM in DMSO, followed by a serial 4-fold dilution with DMSO to a minimum concentration of 0.061 nM. Each concentration was further diluted 40-fold with the reaction buffer. To a 384-well assay plate (Corning, 3674) were added 4 μL of the compound solutions having a series of concentrations and 2 μL of kinase reaction solutions. After being mixed evenly, the mixtures were incubated at room temperature for 15 minutes, and then 4 μL of the substrate reaction solutions were added. The reaction mixtures were incubated at room temperature for 40 minutes. Then the reaction mixtures were added with 10 μL of detection solutions, mixed evenly, and allowed to stand at room temperature for 30 minutes. An Envision plate reader (Perkin Elmer) was then used to measure the progress of the reaction at wavelengths of 620 nm and 665 nm. The signal value (absorbance at 665 nm/absorbance at 620 nm) was positively correlated with the degree of substrate phosphorylation, therefore the kinase activity of TYK2 was detected. In this assay, the group without TYK2 kinase protein was the 100% inhibition group, and the group with TYK2 kinase protein but without the test compound was the 0% inhibition group. The compound inhibition curve was plotted using XLfit software and the IC50 of its inhibition was calculated.

Row | SMILES | IC50 [1] [nM] | IC50 [2] [nM] | IC50 [3] [nM]
1 | CS(=O)(=O)c1ccc(Nc2nc(-c3c(F)cccc3F)n3c2C(=O)NCC3)cc1 [Compound 12, 3-(2,6-difluorophenyl)-1-((4-(methylsulfonyl)phenyl)amino)-6,7-dihydroimidazo[1,5-a]pyrazin-8(5H)-one] | 5.5 | 110 | 0.9
2 | CC(C)(C(=O)N1CCC1)c1ccc(Nc2nc(-c3c(F)cccc3F)n3c2C(=O)NCC3)cc1 [Compound 13, 1-((4-(1-(azetidin-1-yl)-2-methyl-1-oxopropan-2-yl)phenyl)amino)-3-(2,6-difluorophenyl)-6,7-dihydroimidazo[1,5-a]pyrazin-8(5H)-one] | 2.2 | 1060 | 0.3
3 | O=C(Cc1ccc(Nc2nc(-c3c(F)cccc3F)n3cc[nH]c(=O)c23)cc1)N1CCOCC1 [Compound 14, 3-(2,6-difluorophenyl)-1-((4-(2-morpholino-2-oxoethyl)phenyl)amino)imidazo[1,5-a]pyrazin-8(7H)-one] | 0.5 | 113 | 0.3
4 | O=C1NCCn2c(-c3c(F)cccc3F)nc(Nc3ccc(CC(=O)N4CCOCC4)cc3)c21 [Compound 16, 3-(2,6-difluorophenyl)-1-((4-(2-morpholino-2-oxoethyl)phenyl)amino)-6,7-dihydroimidazo[1,5-a]pyrazin-8(5H)-one] | 4.9 | 1440 | 2
5 | CC(C)(C(=O)N1CCOCC1)c1ccc(Nc2nc(-c3c(F)cccc3F)n3cc[nH]c(=O)c23)cc1 [Compound 17, 3-(2,6-difluorophenyl)-1-((4-(2-methyl-1-morpholino-1-oxopropan-2-yl)phenyl)amino)imidazo[1,5-a]pyrazin-8(7H)-one] | 0.3 | 520 | 0.1
6 | CC(C)(C(=O)N1CCOCC1)c1ccc(Nc2nc(-c3c(F)cccc3F)n3c2C(=O)NCC3)cc1 [Compound 18, 3-(2,6-difluorophenyl)-1-((4-(2-methyl-1-morpholino-1-oxopropan-2-yl)phenyl)amino)-6,7-dihydroimidazo[1,5-a]pyrazin-8(5H)-one] | 2.2 | 1410 | 0.3
7 | Cn1cc(Nc2nc(-c3c(F)cccc3Cl)n3cc[nH]c(=O)c23)cn1 [Compound 26, 3-(2-chloro-6-fluorophenyl)-1-((1-methyl-1H-pyrazol-4-yl)amino)imidazo[1,5-a]pyrazin-8(7H)-one] | 2.9 | 149 | 0.7
8 | NC(=O)c1ccc(Nc2nc(-c3c(F)cccc3F)n3cc[nH]c(=O)c23)cc1 [Compound 27, 4-((3-(2,6-difluorophenyl)-8-oxo-7,8-dihydroimidazo[1,5-a]pyrazin-1-yl)amino)benzamide] | 1.4 | 60 | 0.2
9 | CN1CCN(C(=O)c2ccc(Nc3nc(-c4c(F)cccc4Cl)n4cc[nH]c(=O)c34)cc2)CC1 [Compound 31, 3-(2-chloro-6-fluorophenyl)-1-((4-(4-methylpiperazine-1-carbonyl)phenyl)amino)imidazo[1,5-a]pyrazin-8(7H)-one] | 0.6 | 56 | 0.1
10 | O=C(c1ccc(Nc2nc(-c3c(F)cccc3Cl)n3cc[nH]c(=O)c23)cc1)N1CCNCC1 [Compound 32, 3-(2-chloro-6-fluorophenyl)-1-((4-(piperazine-1-carbonyl)phenyl)amino)imidazo[1,5-a]pyrazin-8(7H)-one] | 0.6 | 425 | 0.1
11 | CC(C)(C(N)=O)c1ccc(Nc2nc(-c3c(F)cccc3Cl)n3cc[nH]c(=O)c23)cc1 [Compound 33, 2-(4-((3-(2-chloro-6-fluorophenyl)-8-oxo-7,8-dihydroimidazo[1,5-a]pyrazin-1-yl)amino)phenyl)-2-methylpropanamide] | 0.4 | 66 | 0.1
